Laboratory results reported in patent US9434763B2, “Derivatives of pyridinone as inhibitors for tissue transglutaminase” (ZEDIRA GMBH, priority 2012, dated 2016).

What was measured:
[1] = biological target: T1, His tagged recombinant human tissue transglutaminase (His6-rh-TG2) (Homo sapiens, UniProt P21980); assay: Inactivation of human tissue transglutaminase, fluorescence assay with Abz-APE(CAD-DNP)QEA-OH; assay type: biochemical; conditions: substrate Abz-APE(CAD-DNP)QEA-OH, 37° C., pH=7.5
T1 construct: purchased Zedira T002
T1 sequence (P21980 1-687): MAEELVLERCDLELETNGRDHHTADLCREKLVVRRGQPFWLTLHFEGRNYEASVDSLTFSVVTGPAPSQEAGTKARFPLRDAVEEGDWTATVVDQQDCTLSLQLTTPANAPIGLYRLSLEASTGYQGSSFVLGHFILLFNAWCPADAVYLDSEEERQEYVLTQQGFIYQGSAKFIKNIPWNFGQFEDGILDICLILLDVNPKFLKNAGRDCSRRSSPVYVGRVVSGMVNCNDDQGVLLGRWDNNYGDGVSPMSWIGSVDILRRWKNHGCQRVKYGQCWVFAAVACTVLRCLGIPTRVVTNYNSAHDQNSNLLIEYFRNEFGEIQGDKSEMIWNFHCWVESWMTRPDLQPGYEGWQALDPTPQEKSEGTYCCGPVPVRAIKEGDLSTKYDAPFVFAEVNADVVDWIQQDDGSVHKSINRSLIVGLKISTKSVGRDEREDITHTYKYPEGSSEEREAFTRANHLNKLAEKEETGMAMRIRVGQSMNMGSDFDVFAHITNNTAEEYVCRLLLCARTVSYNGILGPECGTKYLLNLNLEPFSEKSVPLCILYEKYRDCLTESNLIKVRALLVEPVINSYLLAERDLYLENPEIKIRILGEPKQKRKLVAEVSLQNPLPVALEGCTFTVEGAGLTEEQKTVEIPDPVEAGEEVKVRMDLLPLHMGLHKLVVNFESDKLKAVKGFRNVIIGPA
Outline: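 His6-rh-TG2 (10 μg per assay) was preincubated 5 min at 37 °C with inhibitor in Tris/CaCl2/PEG8000/DTT/glycine methyl ester assay solution (50 μM Abz-APE(CAD-DNP)QEA-OH), pH 7.5, DMSO <0.2%. Fluorescence (ex 313/em 418 nm) read over 15–30 min and activity taken from the slope. IC50 from activity vs log inhibitor concentration.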

TG3 (transglutaminase 3) = biological target: T2, TG3 (transglutaminase 3) (Homo sapiens, UniProt Q08188); assay: Comparative transglutaminase selectivity assay with casein and dansylcadaverine as substrates: TG3; assay type: biochemical; conditions: casein as substrate
T2 construct: purchased Zedira T012
T2 sequence (Q08188 1-693): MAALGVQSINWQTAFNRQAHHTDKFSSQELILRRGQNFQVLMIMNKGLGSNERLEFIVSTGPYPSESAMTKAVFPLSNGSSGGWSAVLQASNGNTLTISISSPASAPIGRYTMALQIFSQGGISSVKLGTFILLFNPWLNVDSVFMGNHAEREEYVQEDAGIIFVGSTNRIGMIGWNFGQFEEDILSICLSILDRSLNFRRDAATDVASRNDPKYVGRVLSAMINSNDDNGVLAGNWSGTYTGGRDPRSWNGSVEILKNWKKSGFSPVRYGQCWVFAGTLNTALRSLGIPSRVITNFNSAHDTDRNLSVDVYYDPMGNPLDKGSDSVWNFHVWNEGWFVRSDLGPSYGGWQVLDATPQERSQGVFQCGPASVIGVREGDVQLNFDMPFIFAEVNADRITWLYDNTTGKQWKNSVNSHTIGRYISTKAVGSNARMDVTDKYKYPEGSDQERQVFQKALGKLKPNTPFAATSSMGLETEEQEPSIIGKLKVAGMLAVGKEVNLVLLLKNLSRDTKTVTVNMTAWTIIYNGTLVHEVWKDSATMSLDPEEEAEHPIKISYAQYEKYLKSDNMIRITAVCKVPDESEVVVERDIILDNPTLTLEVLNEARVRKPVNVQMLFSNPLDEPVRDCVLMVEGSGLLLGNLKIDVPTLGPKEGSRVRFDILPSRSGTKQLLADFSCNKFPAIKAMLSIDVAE
From the text: The comparative determination of different transglutaminases to determine the selectivity was made with casein and dansylcadaverine as substrates. Therefore, the kit T036 (Zedira, Darmstadt; Refs: Lorand et al, Anal Biochem, 1971, 44:221-31) as well as transglutaminase products T009 (transglutaminase 1), T012 (transglutaminase 3), T021 (transglutaminase 6) and T027 (plasma transglutaminase, factor XIII) are used. Therefore, two different IC50 values for the compounds are given.
The evaluation of the resulting enzyme activity is done using the slope of the straight line obtained by the increase in fluorescence.
To determine the non-inhibited enzyme activity, DMSO instead of inhibitor stock solution is used. IC50 values are determined by plotting the resulting enzyme activity against the logarithm of the inhibitor concentration. IC50 is defined as the concentration of inhibitor resulting in 50% of enzyme activity.
It should be noted that it was measured here against casein as substrate, which is why other apparent inhibition values (IC50 value) result.

SMILES	IC50 [1]	IC50 (TG3 (transglutaminase 3))
CCOC(=O)/C=C/CC[C@H](NC(=O)c1cncn1C)C(=O)Nc1cccn(CC(=O)N[C@H](C(=O)O)[C@H](C)CC)c1=O [A53, (2S,3R)-2-(2-(3-((S,E)-7-Ethoxy-2-(1-methyl-1H-imidazole-5-carboxamido)-7-oxohept-5-enamido)-2-oxopyridin-1(2H)-yl)acetamido)-3-methylpentanoic acid]	0.06 µM	72.6 µM
CCOC(=O)/C=C/CC[C@H](NC(C)=O)C(=O)Nc1cccn(CC(=O)NCCC(C)C)c1=O [A7, (S,E)-Ethyl 6-acetamido-7-(1-(2-(isopentylamino)-2-oxoethyl)-2-oxo-1,2-dihydropyridin-3-ylamino)-7-oxohept-2-enoate]	–	84.1 µM
CCC(CC)CNC(=O)Cn1cccc(NC(=O)[C@H](CC/C=C/C(=O)OC)NC(=O)c2cncn2C)c1=O [A63, (S,E)-Methyl 7-(1-(2-(2-ethylbutylamino)-2-oxoethyl)-2-oxo-1,2-dihydropyridin-3-ylamino)-6-(1-methyl-1H-imidazole-5-carboxamido)-7-oxohept-2-enoate]	0.045 µM	73.9 µM
CC[C@@H](C)[C@H](NC(=O)Cn1cccc(NC(=O)[C@H](CC/C=C/C(=O)OC)NC(=O)c2ccccc2)c1=O)C(=O)O [A61, (2S,3R)-2-(2-(3-((S,E)-2-benzamido-7-methoxy-7-oxohept-5-enamido)-2-oxopyridin-1(2H)-yl)acetamido)-3-methylpentanoic acid]	–	17.6 µM
CCOC(=O)/C=C/CC[C@H](NC(=O)CCC(=O)O)C(=O)Nc1cccn(CC(=O)NCCC(C)C)c1=O [A24, (S,E)-4-(7-Ethoxy-1-(1-(2-(isopentylamino)-2-oxoethyl)-2-oxo-1,2-dihydropyridin-3-ylamino)-1,7-dioxohept-5-en-2-ylamino)-4-oxobutanoic acid]	0.173 µM	119 µM
CCOC(=O)/C=C/CC[C@H](NC(C)=O)C(=O)Nc1cccn(CC(=O)NCC(CC)CC)c1=O [A62, (S,E)-Ethyl 6-acetamido-7-(1-(2-(2-ethylbutylamino)-2-oxoethyl)-2-oxo-1,2-dihydropyridin-3-ylamino)-7-oxohept-2-enoate]	0.093 µM	99.7 µM
CCOC(=O)/C=C/CC[C@H](NC(C)=O)C(=O)Nc1cccn(CC(=O)N[C@H](C(=O)OC)[C@H](C)CC)c1=O [A35, (S,E)-ethyl 6-acetamido-7-(1-(2-((2S,3R)-1-methoxy-3-methyl-1-oxopentan-2-ylamino)-2-oxoethyl)-2-oxo-1,2-dihydropyridin-3-ylamino)-7-oxohept-2-enoate]	0.055 µM	95.8 µM
COC(=O)/C=C/CC[C@H](NC(C)=O)C(=O)Nc1cccn(CC(=O)N2CCCC(C)C2)c1=O (stereo partly drawn) [A64, (6S,E)-Methyl 6-acetamido-7-(1-(2-(3-methylpipendin-1-yl)-2-oxoethyl)-2-oxo-1,2-dihydropyridin-3-ylamino)-7-oxohept-2-enoate]	0.141 µM	125 µM
COC(=O)/C=C/CC[C@H](NC(C)=O)C(=O)Nc1cccn(CC(=O)N2CCC(C(F)(F)F)CC2)c1=O [A65, (S,E)-Methyl 6-acetamido-7-oxo-7-(2-oxo-1-(2-oxo-2-(4-(trifluoromethyl)piperidin-1-yl)ethyl)-1,2-dihydropyridin-3-ylamino)hept-2-enoate]	0.132 µM	100 µM

Continued, values first:

IC50 [1]	IC50 (TG3 (transglutaminase 3))	SMILES
0.08 µM	128 µM	CCOC(=O)/C=C/CC[C@H](NC(=O)c1cncn1C)C(=O)Nc1cccn(CC(=O)NCCC(C)C)c1=O [A19, (S,E)-Ethyl 7-(1-(2-(isopentylamino)-2-oxoethyl)-2-oxo-1,2-dihydropyridin-3-ylamino)-6-(1-methyl-1H-imidazole-5-carboxamido)-7-oxohept-2-enoate]
0.054 µM	42.3 µM	CC[C@@H](C)[C@H](NC(=O)Cn1cccc(NC(=O)[C@H](CC/C=C/C(=O)OC)NC(=O)c2cncn2C)c1=O)C(=O)O [A60, (2S,3R)-2-(2-(3-((S,E)-7-Methoxy-2-(1-methyl-1H-imidazole-5-carboxamido)-7-oxohept-5-enamido)-2-oxopyridin-1(2H)-yl)acetamido)-3-methylpentanoic acid]
0.116 µM	69 µM	CCOC(=O)/C=C/CC[C@H](NC(=O)CCC(=O)O)C(=O)Nc1cccn(CC(=O)NCC(CC)CC)c1=O [A30, (S,E)-4-(7-Ethoxy-1-(1-(2-(2-ethylbutylamino)-2-oxoethyl)-2-oxo-1,2-dihydropyridin-3-ylamino)-1,7-dioxohept-5-en-2-ylamino)-4-oxobutanoic acid]
0.147 µM	104 µM	CCOC(=O)/C=C/CC[C@H](NC(C)=O)C(=O)Nc1cccn(CC(=O)NCCC(CC)CC)c1=O [A42, (S,E)-ethyl 6-acetamido-7-(1-(2-(3-ethylpentylamino)-2-oxoethyl)-2-oxo-1,2-dihydropyridin-3-ylamino)-7-oxohept-2-enoate]
–	70.9 µM	COC(=O)/C=C/CC[C@H](NC(C)=O)C(=O)Nc1cccn(CC(=O)NCCC(C)C)c1=O [A29, (S,E)-methyl 6-acetamido-7-(1-(2-(isopentylamino)-2-oxoethyl)-2-oxo-1,2-dihydropyridin-3-ylamino)-7-oxohept-2-enoate]
–	109 µM	CCOC(=O)/C=C/CC[C@H](NC(=O)c1cncn1C)C(=O)Nc1cccn(CC(=O)NCC(CC)CC)c1=O [A58, (S,E)-Ethyl 7-(1-(2-(2-ethylbutylamino)-2-oxoethyl)-2-oxo-1,2-dihydropyridin-3-ylamino)-6-(1-methyl-1H-imidazole-5-carboxamido)-7-oxohept-2-enoate]
0.043 µM	41.1 µM	CCOC(=O)/C=C/CC[C@H](NC(=O)c1ccccc1)C(=O)Nc1cccn(CC(=O)N[C@H](C(=O)O)[C@H](C)CC)c1=O [A59, (2S,3R)-2-(2-(3-((S,E)-2-Benzamido-7-ethoxy-7-oxohept-5-enamido)-2-oxopyridin-1(2H)-yl)acetamido)-3-methylpentanoic acid]
0.034 µM	59.6 µM	CCC(CC)CNC(=O)Cn1cccc(NC(=O)[C@H](CC/C=C/C(=O)OC)NC(C)=O)c1=O [A79, (S,E)-Methyl 6-acetamido-7-(1-(2-(2-ethylbutylamino)-2-oxoethyl)-2-oxo-1,2-dihydropyridin-3-ylamino)-7-oxohept-2-enoate]
